Reference: patent publication US20240116985A1, “STAPLED PEPTIDES AND METHODS THEREOF” (priority 2020, published 2024)
pIC50: −log10 of the molar value. Like-named read-outs stand apart in the source and are kept apart here.

Experiments:
[1] = target: T1, full-length beta-Catenin (Uniprot ID P35222) (Homo sapiens, UniProt P35222); assay: Fluorescence polarization IC50 (beta-catenin / 5FAM-TCF4 10-53 competition); type: binding; conditions: fluorescence polarization
T1 construct: 10 nM full-length beta-Catenin (Uniprot ID P35222)
T1 sequence (P35222 1-781): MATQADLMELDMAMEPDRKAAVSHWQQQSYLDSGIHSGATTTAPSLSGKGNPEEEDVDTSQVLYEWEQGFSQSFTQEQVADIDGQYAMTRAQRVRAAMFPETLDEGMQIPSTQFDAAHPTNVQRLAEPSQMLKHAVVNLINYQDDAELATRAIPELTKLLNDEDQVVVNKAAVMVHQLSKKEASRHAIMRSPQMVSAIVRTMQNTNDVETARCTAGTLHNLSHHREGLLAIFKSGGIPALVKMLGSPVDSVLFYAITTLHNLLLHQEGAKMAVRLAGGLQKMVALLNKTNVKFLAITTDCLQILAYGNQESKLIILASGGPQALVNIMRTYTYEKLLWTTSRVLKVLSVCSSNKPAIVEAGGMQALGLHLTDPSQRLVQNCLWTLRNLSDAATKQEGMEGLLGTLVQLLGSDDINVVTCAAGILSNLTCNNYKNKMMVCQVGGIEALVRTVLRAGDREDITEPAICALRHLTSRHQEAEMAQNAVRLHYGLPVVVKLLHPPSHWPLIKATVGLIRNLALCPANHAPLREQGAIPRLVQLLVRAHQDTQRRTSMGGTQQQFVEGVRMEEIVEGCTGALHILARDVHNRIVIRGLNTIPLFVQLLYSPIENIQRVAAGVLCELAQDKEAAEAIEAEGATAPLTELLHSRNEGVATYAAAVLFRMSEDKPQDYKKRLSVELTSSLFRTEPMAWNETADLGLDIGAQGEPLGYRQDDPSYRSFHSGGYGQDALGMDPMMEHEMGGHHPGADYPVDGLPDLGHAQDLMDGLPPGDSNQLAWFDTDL

[2] = target: T2, beta-catenin/TCF4 engagement (Homo sapiens, UniProt P35222); assay: Nano-BRET target engagement assay (B-cat-Halo & TCF4-Luc in HEK293 cells); type: cell-based; conditions: read-out: NanoBRET Abs IC50
T2 construct: expressed in transfected cells; host or cells: HEK293
T2 sequence (P35222 1-781): T1 sequence (P35222 1-781)

Compound | pIC50 ([1]; read-out: beta-Catenin FP IC50) | pIC50 ([2]; absolute IC50) | pIC50 [2] | pIC50 ([1]; beta-catenin, read-out: FP EC50)
CC(=O)N1CCC[C@]12CC=CCCCC1(CCCC=CCCCOC(=O)N3CC[C@@](C(=O)N[C@@H](Cc4ccsc4)C(=O)N[C@H](C(=O)N[C@@H](CCC(N)=O)C(N)=O)[C@@H](C)c4ccc5ccccc5c4)(C3)NC(=O)[C@H](CC(C)C)NC(=O)[C@H](Cc3ccccc3)NC(=O)[C@H](C)NC(=O)[C@H](C)NC(=O)[C@H](Cc3cccc(C(=O)O)c3)NC(=O)[C@H](CC(=O)O)NC1=O)NC(=O)[C@H](CC(C)(C)C)NC(=O)[C@H](CC(=O)O)NC2=O (stereo partly drawn) [I-2313, Ac-PL3-Asp-Npg-B5-Asp-3COOHF-Ala-Ala-Phe-Leu-PyrS2-3Thi-SbMe2NapA-Gln-NH2] | 7.66 | 4.61 | – | –
CC(=O)N1CCC[C@]12CC=CCCCC1(CCCC=CCCCOC(=O)N3CCC(C(=O)N[C@@H](Cc4ccsc4)C(=O)N[C@@H](Cc4csc5ccccc45)C(=O)N[C@@H](C)C(N)=O)(CC3)NC(=O)[C@H](CC(C)C)NC(=O)[C@H](Cc3ccccc3)NC(=O)[C@H](C)NC(=O)[C@H](CCC(N)=O)NC(=O)[C@H](Cc3cccc(C(=O)O)c3)NC(=O)[C@H](CC(=O)O)NC1=O)NC(=O)[C@H](CC(C)(C)C)NC(=O)[C@H](CC(=O)O)NC2=O (stereo partly drawn) [I-2592, Ac-PL3-Asp-Npg-B5-Asp-3COOHF-Gln-Ala-Phe-Leu-SPip2-3Thi-BztA-Ala-NH2] | 7.43 | – | < 4.70 | –
CC(=O)N1CCC[C@]12CC=CCCCC1(CCCC=CCCCOC(=O)N3CC[C@@](C(=O)N[C@@H](Cc4ccccc4C(F)(F)F)C(=O)N[C@@H](Cc4csc5ccccc45)C(=O)N[C@@H](C)C(N)=O)(C3)NC(=O)[C@H](CC(C)C)NC(=O)[C@H](Cc3ccccc3)NC(=O)[C@H](C)NC(=O)[C@H](CO)NC(=O)[C@H](Cc3cccc(C(=O)O)c3)NC(=O)[C@H](CC(=O)O)NC1=O)NC(=O)[C@H](CC(C)(C)C)NC(=O)[C@H](CC(=O)O)NC2=O (stereo partly drawn) [I-2059, Ac-PL3-Asp-Npg-B5-Asp-3COOHF-Ser-Ala-Phe-Leu-PyrS2-2F3MeF-BztA-Ala-NH2] | 7.42 | – | 5.32 | –
CC(=O)N1CCC[C@]12CC=CCCCC1(CCCC=CCCCOC(=O)N3CC[C@@](C(=O)N[C@@H](Cc4ccsc4)C(=O)N[C@@H](Cc4c[nH]c5ccccc45)C(=O)N[C@@H](CCC(N)=O)C(N)=O)(C3)NC(=O)[C@H](CC(C)C)NC(=O)[C@H](Cc3ccccc3)NC(=O)[C@H](C)NC(=O)[C@H](C)NC(=O)[C@H](CC(=O)O)NC(=O)[C@H](CC(=O)O)NC1=O)NC(=O)[C@H](CC(C)(C)C)NC(=O)[C@H](CC(=O)O)NC2=O (stereo partly drawn) [I-1431, Ac-PL3-Asp-Npg-B5-Asp-Asp-Ala-Ala-Phe-Leu-PyrS2-3Thi-Trp-Gln-NH2] | 7.36 | 4.84 | – | 7.47
CC(=O)N1CCC[C@]12CC=CCCCC1(CCCC=CCCCOC(=O)N3CC[C@@](C(=O)N[C@@H](Cc4ccsc4)C(=O)N[C@@H](Cc4csc5ccccc45)C(=O)N[C@@H](CCO)C(N)=O)(C3)NC(=O)[C@H](CC(C)C)NC(=O)[C@H](Cc3ccccc3)NC(=O)[C@H](C)NC(=O)[C@H](C)NC(=O)[C@H](CC(=O)O)NC(=O)[C@H](CC(=O)O)NC1=O)NC(=O)[C@H](CC(C)(C)C)NC(=O)[C@H](CC(=O)O)NC2=O (stereo partly drawn) [I-1499, Ac-PL3-Asp-Npg-B5-Asp-Asp-Ala-Ala-Phe-Leu-PyrS2-3Thi-BztA-Hse-NH2] | 7.64 | 5.19 | – | –
CC(=O)N1CCC[C@]12CC=CCCCC1(CCCC=CCCCOC(=O)N3CC[C@@](C(=O)N[C@@H](Cc4ccsc4)C(=O)N[C@@H](Cc4csc5ccccc45)C(=O)N[C@@H](CCC(N)=O)C(N)=O)(C3)NC(=O)[C@H](CC(C)C)NC(=O)[C@H](Cc3ccccc3)NC(=O)[C@H](C)NC(=O)[C@H](C)NC(=O)[C@H](CCN(CC(=O)O)C(=O)c3c(F)c(F)c(F)c(F)c3F)NC(=O)[C@H](CC(=O)O)NC1=O)NC(=O)[C@H](CC(C)(C)C)NC(=O)[C@H](CC(=O)O)NC2=O (stereo partly drawn) [I-2252, Ac-PL3-Asp-Npg-B5-Asp-[PfBz]GAbu-Ala-Ala-Phe-Leu-PyrS2-3Thi-BztA-Gln-NH2] | 7.51 | 4.76 | – | –
